Where “and” joins values, the source holds several entries; their conditions need not be identical. Identical values can stand only once.
Tested on: 299254-011-R-J1-PDC complex spheroids viability
Assay: Anticancer human tumor 299254-011-R-J1-PDC patient-derived melanoma cell line growth inhibition [GQUAD]
Conditions: for viability, T/C: stronger effect = lower value; active means viability on the fitted dose curve at most 10% of control; inactive means the rest
Text: DNA G-quadruplex Stabilizer Agents in Combinations in Complex Spheroids
A high-throughput screen of multi-cell type tumor spheroids was designed to identify active combinations of DNA G-quadruplex stabilizer agents and targeted small molecules. Complex spheroids include a stromal component modeled by human endothelial cells (HUVEC) and fibroblasts modeled by human mesenchymal stem cells (MSCs). The concentration ranges selected for each drug and investigational agent were based upon clinically achievable concentrations if the clinical Cmax of the agent was known.
Compounds. The drugs and investigational agents: pidnarulex (CX-5461; NSC782164), APTO-253 (NSC789042), BRACO-19 (NSC847499), peposertib (NSC802822), ceralasertib (NSC780249), elimusertib (NSC800525), camonsertib (NSC841442), AZD-1390 (NSC803789), olaparib (NSC753686), talazoparib (NSC767125), ART-558 (NSC835418), sotorasib (NSC818433), MRTX-1133 (NSC836407), SN-38 (NSC673596), topotecan (NSC609699), etoposide (NSC141540), doxorubicin (NSC123127), gemcitabine (NSC613327), 5-fluorouracil (NSC19893), paclitaxel (NSC125973), vemurafenib (NSC761431), panobinostat (NSC761190), R-306465 (JNJ-16241199; NSC773264), adavosertib (NSC754352), TP-3654 (NSC805149), carboplatin (NSC241240), KSQ-4279 (NSC840948), and staurosporine (NSC755774) were obtained from the National Cancer Institute (NCI) Developmental Therapeutics Program Chemical Repository (34). The FDA-approved anticancer drug set is available from the NCI Developmental Therapeutics Program. […] The stock solutions were prepared in dimethyl sulfoxide (DMSO, Sigma-Aldrich, St. Louis, MO, cat. D2650) at 800-fold the tested concentration and stored at -70 degrees C prior to their use. All drugs and investigational agents were tested over a range starting from a high concentration at or near the clinical Cmax and decreasing in half-log increments. If the clinical Cmax for an agent had not been determined, the highest concentration tested was 10 microM.
2.3 Cell Culture. All cells were maintained in an incubator at 37 degrees C and 5% CO2 with 95% humidity. The PDC lines were cultured according to standard operating procedures established by the NCI PDMR. All PDCs were thawed and cultured in Matrigel-coated flasks prepared with a working solution of 1X Ham's F-12 nutrient mix, without supplementation (Invitrogen, cat. 11765054), 100 U/mL penicillin-streptomycin (Invitrogen, cat. 15140122), and 2.5% Matrigel (Corning Inc., cat. 354248) for the first three passages. The 857933-349-R-J2-PDC line was cultured in 6C/Colon 1B media, which includes advanced DMEM/F-12 (Thermo Fisher Scientific, cat. 12634028), 10 mM HEPES (Thermo Fisher Scientific, cat. 15630080), 1X GlutaMAX supplement (Thermo Fisher Scientific, cat. 35050061), 0.1 mg/mL primocin (InvivoGen, cat. ant-pm-2), 10% defined fetal bovine serum, heat inactivated (HyClone Laboratories Inc., cat. SH30070.03HI), 50% L-WRN conditioned media (ATCC, cat. CRL-3276), 1.25 mM N-Acetyl-L-cysteine (Sigma-Aldrich, cat. A9165), 10 mM nicotinamide (Sigma-Aldrich, cat. N0636), 1X B-27 supplement (Thermo Fisher Scientific, cat. 17504044), 1X N-2 supplement (Thermo Fisher Scientific, cat. 17502048), 10 microM Y-27632 dihydrochloride (Tocris Bioscience, cat. 1254), and 50 ng/mL human EGF recombinant protein (Thermo Fisher Scientific, cat. PHG0311). The 485176-168-R4-J1-PDC line was cultured in Panc media, which includes all 6C/Colon 1B media components plus 100 ng/mL human FGF-10 (Thermo Fisher Scientific, cat. 100-26), 500 nM SB-431542 (Selleckchem, cat. S1067), and gastrin (Tocris, cat. 3006).
[…]

[1] = curve of first compound, second compound 0.0316 µM
[2] = curve of first compound, second compound 0.1 µM
[3] = curve of first compound, second compound 0.316 µM
[4] = curve of first compound, second compound 1 µM
[5] = curve of first compound, second compound 3.16 µM
[6] = curve of first compound, second compound 10 µM
[7] = second compound 0.0316 µM, first compound 0.0316 µM
[8] = second compound 0.0316 µM, first compound 0.1 µM
[9] = second compound 0.0316 µM, first compound 0.316 µM
[10] = second compound 0.0316 µM, first compound 1 µM
[11] = second compound 0.0316 µM, first compound 3.16 µM
[12] = second compound 0.0316 µM, first compound 10 µM
[13] = second compound 0.1 µM, first compound 0.0316 µM
[14] = second compound 0.1 µM, first compound 0.1 µM
[15] = second compound 0.1 µM, first compound 0.316 µM
[16] = second compound 0.1 µM, first compound 1 µM
[17] = second compound 0.1 µM, first compound 3.16 µM
[18] = second compound 0.1 µM, first compound 10 µM
[19] = second compound 0.316 µM, first compound 0.0316 µM
[20] = second compound 0.316 µM, first compound 0.1 µM
[21] = second compound 0.316 µM, first compound 0.316 µM
[22] = second compound 0.316 µM, first compound 1 µM
[23] = second compound 0.316 µM, first compound 3.16 µM
[24] = second compound 0.316 µM, first compound 10 µM
[25] = second compound 1 µM, first compound 0.0316 µM
[26] = second compound 1 µM, first compound 0.1 µM
[27] = second compound 1 µM, first compound 0.316 µM
[28] = second compound 1 µM, first compound 1 µM
[29] = second compound 1 µM, first compound 3.16 µM
[30] = second compound 1 µM, first compound 10 µM
[31] = second compound 3.16 µM, first compound 0.0316 µM
[32] = second compound 3.16 µM, first compound 0.1 µM
[33] = second compound 3.16 µM, first compound 0.316 µM
[34] = second compound 3.16 µM, first compound 1 µM
[35] = second compound 3.16 µM, first compound 3.16 µM
[36] = second compound 3.16 µM, first compound 10 µM
[37] = second compound 10 µM, first compound 0.0316 µM
[38] = second compound 10 µM, first compound 0.1 µM
[39] = second compound 10 µM, first compound 0.316 µM
[40] = second compound 10 µM, first compound 1 µM
[41] = second compound 10 µM, first compound 3.16 µM
[42] = second compound 10 µM, first compound 10 µM
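Further: spheroids exposed to the agents for seven days before readout.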
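Wherever viability, T/C is given: percent viability relative to DMSO vehicle control wells = 100%.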

C=CC(=O)N1CCN(c2nc(=O)n(-c3c(C)ccnc3C(C)C)c3nc(-c4c(O)cccc4F)c(F)cc23)C(C)C1 (stereo not given) + CN(C)c1ccc(Nc2c3ccc(NC(=O)CCN4CCCC4)cc3nc3cc(NC(=O)CCN4CCCC4)ccc23)cc1
inactive: viability, T/C [7] 93.8% | viability, T/C [8] 68.9% | viability, T/C [9] 73.1% | viability, T/C [10] 56.3% | viability, T/C [11] 64.4% | viability, T/C [12] 66.6% | viability, T/C [13] 79.4% | viability, T/C [14] 80.2% | viability, T/C [15] 57% | viability, T/C [16] 60.4% | viability, T/C [17] 74.7% | viability, T/C [18] 74.3% | viability, T/C [19] 76.2% | viability, T/C [20] 81.3% | viability, T/C [21] 62.3% | viability, T/C [22] 68.2% | viability, T/C [23] 67.3% | viability, T/C [24] 65.4% | viability, T/C [25] 81.1% | viability, T/C [26] 74% | viability, T/C [27] 71.8% | viability, T/C [28] 67.4% | viability, T/C [29] 80% | viability, T/C [30] 65% | viability, T/C [31] 71.2% | viability, T/C [32] 83.3% | viability, T/C [33] 75.8% | viability, T/C [34] 60.4% | viability, T/C [35] 73% | viability, T/C [36] 79.1% | viability, T/C [37] 74.4% | viability, T/C [38] 74.8% | viability, T/C [39] 74.7% | viability, T/C [40] 68.2% | viability, T/C [41] 69.7% | viability, T/C [42] 76.8%
> 10 µM: IC50 [1] | IC50 [2] | IC50 [3] | IC50 [4] | IC50 [5] | IC50 [6]

CC(=O)O[C@H]1C(=O)[C@@]2(C)[C@H]([C@H](OC(=O)c3ccccc3)[C@]3(O)C[C@H](OC(=O)[C@H](O)[C@@H](NC(=O)c4ccccc4)c4ccccc4)C(C)=C1C3(C)C)[C@]1(OC(C)=O)CO[C@@H]1C[C@@H]2O
inactive: viability, T/C (compound 0.0316 µM) 102% and 92% and 92.4% | viability, T/C (compound 0.1 µM) 86.3% and 73.8% and 59% | viability, T/C (compound 0.316 µM) 60.6% and 55.7% and 63.9% | viability, T/C (compound 1 µM) 32% and 37.8% and 26.7% | viability, T/C (compound 3.16 µM) 18.9% and 18.2% and 24.1% | viability, T/C (compound 10 µM) 12% and 17.6% and 19.5%
0.483 µM and 0.423 µM and 0.306 µM: IC50 (curve of compound)

Cc1[nH]c2ccc(F)cc2c1-c1nc2c3cccnc3c3ncccc3c2[nH]1
inactive: viability, T/C (compound 0.0316 µM) 99.1% [middle of 12 runs] | viability, T/C (compound 0.316 µM) 95.6% [middle of 12 runs]
> 10 µM: IC50 (compound alone, run of 02/20/2024) | IC50 (compound alone, run of 02/26/2024)

C#Cc1c(F)ccc2cc(O)cc(-c3ncc4c(N5CC6CCC(C5)N6)nc(OCC56CCCN5CC(F)C6)nc4c3F)c12 (stereo not given) + CN(C)c1ccc(Nc2c3ccc(NC(=O)CCN4CCCC4)cc3nc3cc(NC(=O)CCN4CCCC4)ccc23)cc1
> 10 µM: IC50 [1] | IC50 [2] | IC50 [3] | IC50 [4] | IC50 [5] | IC50 [6]
inactive: viability, T/C [7] 85.8% | viability, T/C [8] 92.7% | viability, T/C [9] 101% | viability, T/C [10] 105% | viability, T/C [11] 104% | viability, T/C [12] 78.9% | viability, T/C [13] 114% | viability, T/C [14] 96.4% | viability, T/C [15] 94.8% | viability, T/C [16] 101% | viability, T/C [17] 85.2% | viability, T/C [18] 66% | viability, T/C [19] 113% | viability, T/C [20] 114% | viability, T/C [21] 82.2% | viability, T/C [22] 79.3% | viability, T/C [23] 93.5% | viability, T/C [24] 77% | viability, T/C [25] 85.4% | viability, T/C [26] 105% | viability, T/C [27] 76.7% | viability, T/C [28] 99.7% | viability, T/C [29] 89.2% | viability, T/C [30] 83.9% | viability, T/C [31] 110% | viability, T/C [32] 123% | viability, T/C [33] 97.3% | viability, T/C [34] 112% | viability, T/C [35] 73.6% | viability, T/C [36] 69.9% | viability, T/C [37] 100% | viability, T/C [38] 94.8% | viability, T/C [39] 101% | viability, T/C [40] 87.8% | viability, T/C [41] 85.4% | viability, T/C [42] 72.5%

Source: PubChem BioAssay AID2060513 (Molecular Pharmacology Branch, DTP, NCI, 2025)
